How the values were obtained:
[1] = tested on: normal human dermal fibroblasts (NHDF); assay: Oxygen consumption (mitochondrial and cytoplasmic respiration) of NHDF in culture, BD Oxygen Biosensor System; assay type: cell-based; conditions: 0.05% D-ribose, two hours of contact, six wells
Description: The inventors measured the effect of D-ribose on mitochondrial and cytoplasmic respiration of normal human dermal fibroblasts (NHDF) in culture. The cells were cultivated at 37° C. under an atmosphere of 5% CO2, in a culture solution of DMEM supplemented with 10% bovine fetal serum. […] Thus, D-ribose augments the consumption of oxygen in the cells, and consequently, the metabolism of cutaneous cells and tissues.

[2] = tested on: NHDF; assay: ATP production by NHDF in culture under conditions of hypoxia; assay type: cell-based, human; conditions: 0.05% D-ribose, 24 h pretreatment, after six hours of severe hypoxia (oxygen<2%)
Description: The inventors have measured the effect of D-ribose on the production of ATP by NHDF in culture, under conditions of hypoxia. The cells used were cultivated in flasks of normal human epidermal cells (NHDF) in a medium of DMEM with 10% fetal bovine serum, incubated at 37° C. in an atmosphere of 5% CO2, and 95% air until 80% confluent. On Day 1, a first measure of the level of ATP was determined on the non-treated, non-stressed NHDF. Two sets of six duplicates were 15 pretreated for 24 hours with 0.05% ribose or not treated as control. At Day 2, before the induction of hypoxia, one set of treated and control cells was harvested to measure the level of ATP. The cells of the second set were suspended, the medium renewed with DMEM with 10% fetal bovine serum with HEPES buffer in order to maintain the pH within physiological conditions during hypoxia and with EDTA in order to prevent the agglutination of the cells. The cells were held in an incubator held at 37° C., in which the atmosphere had been previously replaced by nitrogen. The cells were incubated for six hours in a condition of severe hypoxia (oxygen<2%) in the presence of 0.05% D-ribose versus the non-treated control. Recovery of the cells and measurement of the ATP was followed in the treated and control cells. […]

O=C[C@H](O)[C@H](O)[C@H](O)CO [D-ribose]
augmentation of cytoplasmic respiration over control [1]: 37% | augmentation of mitochondrial respiration over control [1]: 31% | recovery of the ATP levels, of the base levels [2]: about 19%

Reference: US20080312169A1, “Cosmetic use of D-ribose” (priority 2007, published 2008)
